This passage reports Kd results from PMC4861429, “Molecular Insights into Toluene Sensing in the TodS/TodT Signal Transduction System” (The Journal of Biological Chemistry, 2016).

Holding throughout (assay): ITC
Holding throughout (format): binding

In experiment [1] the target is T1, PAS1(23–168); dimerization helix-containing PAS1 of TodS (Pseudomonas putida, UniProt A5W4E3).
T1 construct: PAS1 sensor domain with dimerization helix, residues 23-168; N-terminal His6 tag kept; E. coli C41(DE3); dimer in solution

The target of experiment [2] is T2, PAS1(23–168); dimerization helix-containing PAS1 of TodS (Pseudomonas putida, UniProt A5W4E3, I114V).
T2 construct: PAS1 sensor domain with dimerization helix, residues 23-168; N-terminal His6 tag kept; E. coli C41(DE3); dimer in solution

Experiment [3] addresses T3, PAS1(23–168); dimerization helix-containing PAS1 of TodS (Pseudomonas putida, UniProt A5W4E3, W85H).
T3 construct: PAS1 sensor domain with dimerization helix, residues 23-168; N-terminal His6 tag kept; E. coli C41(DE3); dimer in solution

Experiment [4] deals with T4, PAS1(23–168); dimerization helix-containing PAS1 of TodS (Pseudomonas putida, UniProt A5W4E3, E146A).
T4 construct: PAS1 sensor domain with dimerization helix, residues 23-168; N-terminal His6 tag kept; E. coli C41(DE3); dimer in solution

For experiment [5], the target named is T5, PAS1(23–168); dimerization helix-containing PAS1 of TodS (Pseudomonas putida, UniProt A5W4E3, V59A).
T5 construct: PAS1 sensor domain with dimerization helix, residues 23-168; N-terminal His6 tag kept; E. coli C41(DE3); dimer in solution

For experiment [6], the target named is T6, PAS1(23–168); dimerization helix-containing PAS1 of TodS (Pseudomonas putida, UniProt A5W4E3, F46A).
T6 construct: PAS1 sensor domain with dimerization helix, residues 23-168; N-terminal His6 tag kept; E. coli C41(DE3); dimer in solution

In experiment [7] the target is T7, PAS1(23–168); dimerization helix-containing PAS1 of TodS (Pseudomonas putida, UniProt A5W4E3, F79Y).
T7 construct: PAS1 sensor domain with dimerization helix, residues 23-168; N-terminal His6 tag kept; E. coli C41(DE3); dimer in solution
T7 sequence (A5W4E3 23-168 F79Y): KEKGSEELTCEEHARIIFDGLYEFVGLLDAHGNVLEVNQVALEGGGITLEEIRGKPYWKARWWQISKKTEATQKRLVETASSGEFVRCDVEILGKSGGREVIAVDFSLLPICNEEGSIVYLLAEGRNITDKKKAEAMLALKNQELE

T1 sequence (A5W4E3 23-168): as the sequence (A5W4E3 23-168 F79Y) above, with Y57F counted along it
T2 sequence (A5W4E3 23-168 I114V): as the sequence (A5W4E3 23-168 F79Y) above, with Y57F, I92V counted along it
T5 sequence (A5W4E3 23-168 V59A): as the sequence (A5W4E3 23-168 F79Y) above, with V37A, Y57F counted along it
T6 sequence (A5W4E3 23-168 F46A): as the sequence (A5W4E3 23-168 F79Y) above, with F24A, Y57F counted along it
T3 sequence (A5W4E3 23-168 W85H): as the sequence (A5W4E3 23-168 F79Y) above, with Y57F, W63H counted along it
T4 sequence (A5W4E3 23-168, stated change not applied): as the sequence (A5W4E3 23-168 F79Y) above, with Y57F counted along it

By Kd is commonly meant the equilibrium constant for the complex coming apart. The low end stands for a tighter complex, the high end for a looser complex. Turning to `Cc1cccc(C)c1` [m-xylene], the Kd in experiment [1] turned out to be 9.5 µM; in experiment [2], 6.1 µM.

With `Cc1ccccc1` [toluene], the Kd in experiment [3] was 10.6 µM; in experiment [4], 9.6 µM; in experiment [1] it was 8.5 µM; in experiment [2], 8.4 µM; in experiment [5] it was 14.6 µM; in experiment [6], 95.2 µM. The equilibrium dissociation constant (Kd) in experiment [7] came to 71.4 µM.
